Test results from the supplement of paper PMC4862054.

How the values were obtained:
Experiment in all cases: normalised response (% of control), CellTiter-Glo; higher = more viable cells (100 = DMSO, 0 = benzethonium chloride kill control)
Conditions in all cases: incubation time: 72 h
MDA-MB-436 = tested on: MDA-MB-436
Procedure, shortened: (§1)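 The table gives the normalised signal for a single concentration in each entry. Breast cancer cell lines were seeded (20 µl suspension) into 384-well plates holding compound at 5 concentrations in 10-fold steps over a compound-specific 10,000-fold range and incubated 72 h, then read for CellTox Green fluorescence (485/520 nm) and CellTiter-Glo luminescence. Normalisation on each plate used 0.1 % DMSO (100) and a positive kill control (0).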

BT-549 = tested on: BT-549
Procedure, shortened: as §1

HCC1937 = tested on: HCC1937
Procedure, shortened: as §1

MFM-223 = tested on: MFM-223
Procedure, shortened: as §1

SK-BR-3 = tested on: SK-BR-3
Procedure, shortened: as §1

Hs578T = tested on: Hs578T
Procedure, shortened: as §1

CAL-85-1 = tested on: CAL-85-1
Procedure, shortened: as §1

HCC1599 = tested on: HCC1599
Procedure, shortened: as §1

MDA-MB-468 = tested on: MDA-MB-468
Procedure, shortened: as §1

CAL-51 = tested on: CAL-51
Procedure, shortened: as §1

HCC1143 = tested on: HCC1143
Procedure, shortened: as §1

BT-474 = tested on: BT-474
Procedure, shortened: as §1

MCF-10A = tested on: MCF-10A
Procedure, shortened: as §1

MDA-MB-453 = tested on: MDA-MB-453
Procedure, shortened: as §1

DU-4475 = tested on: DU-4475
Procedure, shortened: as §1

HDQ-P1 = tested on: HDQ-P1
Procedure, shortened: as §1

MDA-MB-231 = tested on: MDA-MB-231
Procedure, shortened: as §1

CAL-148 = tested on: CAL-148
Procedure, shortened: as §1

CAL-120 = tested on: CAL-120
Procedure, shortened: as §1

Row | SMILES | normalised response (MDA-MB-436) [%] | normalised response (BT-549) [%] | normalised response (HCC1937) [%] | normalised response (MFM-223) [%] | normalised response (SK-BR-3) [%] | normalised response (Hs578T) [%] | normalised response (CAL-85-1) [%] | normalised response (HCC1599) [%] | normalised response (MDA-MB-468) [%] | normalised response (CAL-51) [%] | normalised response (HCC1143) [%] | normalised response (BT-474) [%] | normalised response (MCF-10A) [%] | normalised response (MDA-MB-453) [%] | normalised response (DU-4475) [%] | normalised response (HDQ-P1) [%] | normalised response (MDA-MB-231) [%] | normalised response (CAL-148) [%] | normalised response (CAL-120) [%]
1 | CCn1c(C(=O)N(C2CC2)C2CC2)cc2c3c(ncn3C)c(Nc3cc(C)n(C)n3)nc21 (1 nM) | 97.9 | 103 | 105 | 102 | 102 | 98 | 105 | 96.7 | 100 | 135 | 100 | 92.6 | 102 | 89.3 | 99.7 | 99.6 | 106 | 97.4 | 94.4
2 | CCn1c(C(=O)N(C2CC2)C2CC2)cc2c3c(ncn3C)c(Nc3cc(C)n(C)n3)nc21 (10 nM) | 103 | 95.2 | 99.5 | 102 |  | 105 | 101 | 82.5 | 106 | 85.3 | 104 | 93.5 | 99.8 | 93.3 | 96.9 | 95.6 | 100 | 107 | 97.3
3 | COc1ccc(S(=O)(=O)Nc2cccnc2Nc2ccc(O)cc2)cc1 [ABT-751] (10 nM) | 108 | 95.8 | 97.5 | 96.7 |  | 93.8 | 97.5 | 124 | 98.2 | 117 | 106 | 101 | 101 | 105 | 102 | 98.5 | 100 | 93.6 | 101
4 | CN[C@@H](C)C(=O)N[C@H]1CN(C(=O)CC(C)C)CC[C@H]2CC[C@@H](C(=O)NC(c3ccccc3)c3ccccc3)N2C1=O [AT-406] (1 nM) | 108 | 106 | 101 | 101 | 105 | 95.1 | 96.8 | 104 | 98.3 | 125 | 109 | 101 | 108 | 103 | 98.2 | 99.9 | 98.3 | 98.3 | 98.4
5 | CN[C@@H](C)C(=O)N[C@H]1CN(C(=O)CC(C)C)CC[C@H]2CC[C@@H](C(=O)NC(c3ccccc3)c3ccccc3)N2C1=O [AT-406] (10 nM) | 97.5 | 66.1 | 104 | 105 | 110 | 99.5 | 97.8 | 99.7 | 103 | 126 | 95.5 | 94.3 | 105 | 89.3 | 99.9 | 102 | 95.5 | 109 | 96.7
6 | Cc1cc(Nc2nc(N[C@@H](C)c3ncc(F)cn3)ncc2Cl)[nH]n1 [AZD1480] (1 nM) | 101 | 92.5 | 96.4 | 95.1 | 118 | 99.7 | 98.4 | 102 | 98.1 | 113 | 95.7 | 102 | 97.1 | 103 | 102 | 96.6 | 99.7 | 89.7 | 98
7 | CNC(=O)c1ccccc1Sc1ccc2c(/C=C/c3ccccn3)n[nH]c2c1 [Axitinib] (10 nM) | 103 | 107 | 100 | 105 | 106 | 97.7 | 102 | 111 | 96.8 | 121 | 102 | 107 | 103 | 107 | 102 | 103 | 107 | 101 | 96.7
8 | CC(O)(CS(=O)(=O)c1ccc(F)cc1)C(=O)Nc1ccc(C#N)c(C(F)(F)F)c1 (configuration not stated) [Bicalutamide] (10 nM) | 111 | 99.5 | 98.6 | 111 | 130 | 99 | 106 | 106 | 102 | 105 | 105 | 107 | 109 | 100 | 104 | 105 | 105 | 113 | 100
9 | CCNC(=O)CCC/C=C\C[C@@H]1[C@@H](/C=C/[C@@H](O)CCc2ccccc2)[C@H](O)C[C@@H]1O [Bimatoprost] (5.5 nM) | 102 | 91.7 | 96 | 96.1 |  | 98.4 | 96.1 | 96.9 | 96.5 | 106 | 99.4 | 96.6 | 96.4 | 96.8 | 99.5 | 94.5 | 101 | 92.8 | 93.1
10 | COc1cc(Nc2c(C#N)cnc3cc(OCCCN4CCN(C)CC4)c(OC)cc23)c(Cl)cc1Cl [Bosutinib] (10 nM) | 97.6 | 98.4 | 95.5 | 106 | 102 | 104 | 94.6 | 91.1 | 107 | 92.3 | 100 | 100 | 96.9 | 104 | 97.7 | 97.3 | 96.1 | 105 | 100
